Measured values taken from publication PMC6877086, “Novel charged sodium and calcium channel inhibitor active against neurogenic inflammation” (eLife, 2019).
Counter-ions that a name gives are not always drawn.

Assays:
Type in all cases: cell-based
Nav1.7 [1] = target: T1, Nav1.7 (Homo sapiens, UniProt Q15858); assay: whole-cell patch clamp, external application; KI estimated from shift in channel availability
T1 construct: gene SCN9A; human Nav1.7 stably expressed in HEK cell line

Cav2.2 [2] = target: T2, Cav2.2 (Rattus norvegicus, UniProt Q02294); assay: whole-cell patch clamp, Ba2+ current, external and internal application
T2 construct: gene Cacna1b; rat Cav2.2 stably expressed with β3 and α2δ−1 subunits in tsA201 cell line; with β3 subunit and α2δ−1 subunit

Nav1.7 [3] = target: T1, Nav1.7; assay: whole-cell patch clamp, use-dependent inhibition at […] Hz
Cav2.2 [4] = target: T2, Cav2.2; assay: whole-cell patch clamp, Ba2+ current

T1 sequence (Q15858 whole entry): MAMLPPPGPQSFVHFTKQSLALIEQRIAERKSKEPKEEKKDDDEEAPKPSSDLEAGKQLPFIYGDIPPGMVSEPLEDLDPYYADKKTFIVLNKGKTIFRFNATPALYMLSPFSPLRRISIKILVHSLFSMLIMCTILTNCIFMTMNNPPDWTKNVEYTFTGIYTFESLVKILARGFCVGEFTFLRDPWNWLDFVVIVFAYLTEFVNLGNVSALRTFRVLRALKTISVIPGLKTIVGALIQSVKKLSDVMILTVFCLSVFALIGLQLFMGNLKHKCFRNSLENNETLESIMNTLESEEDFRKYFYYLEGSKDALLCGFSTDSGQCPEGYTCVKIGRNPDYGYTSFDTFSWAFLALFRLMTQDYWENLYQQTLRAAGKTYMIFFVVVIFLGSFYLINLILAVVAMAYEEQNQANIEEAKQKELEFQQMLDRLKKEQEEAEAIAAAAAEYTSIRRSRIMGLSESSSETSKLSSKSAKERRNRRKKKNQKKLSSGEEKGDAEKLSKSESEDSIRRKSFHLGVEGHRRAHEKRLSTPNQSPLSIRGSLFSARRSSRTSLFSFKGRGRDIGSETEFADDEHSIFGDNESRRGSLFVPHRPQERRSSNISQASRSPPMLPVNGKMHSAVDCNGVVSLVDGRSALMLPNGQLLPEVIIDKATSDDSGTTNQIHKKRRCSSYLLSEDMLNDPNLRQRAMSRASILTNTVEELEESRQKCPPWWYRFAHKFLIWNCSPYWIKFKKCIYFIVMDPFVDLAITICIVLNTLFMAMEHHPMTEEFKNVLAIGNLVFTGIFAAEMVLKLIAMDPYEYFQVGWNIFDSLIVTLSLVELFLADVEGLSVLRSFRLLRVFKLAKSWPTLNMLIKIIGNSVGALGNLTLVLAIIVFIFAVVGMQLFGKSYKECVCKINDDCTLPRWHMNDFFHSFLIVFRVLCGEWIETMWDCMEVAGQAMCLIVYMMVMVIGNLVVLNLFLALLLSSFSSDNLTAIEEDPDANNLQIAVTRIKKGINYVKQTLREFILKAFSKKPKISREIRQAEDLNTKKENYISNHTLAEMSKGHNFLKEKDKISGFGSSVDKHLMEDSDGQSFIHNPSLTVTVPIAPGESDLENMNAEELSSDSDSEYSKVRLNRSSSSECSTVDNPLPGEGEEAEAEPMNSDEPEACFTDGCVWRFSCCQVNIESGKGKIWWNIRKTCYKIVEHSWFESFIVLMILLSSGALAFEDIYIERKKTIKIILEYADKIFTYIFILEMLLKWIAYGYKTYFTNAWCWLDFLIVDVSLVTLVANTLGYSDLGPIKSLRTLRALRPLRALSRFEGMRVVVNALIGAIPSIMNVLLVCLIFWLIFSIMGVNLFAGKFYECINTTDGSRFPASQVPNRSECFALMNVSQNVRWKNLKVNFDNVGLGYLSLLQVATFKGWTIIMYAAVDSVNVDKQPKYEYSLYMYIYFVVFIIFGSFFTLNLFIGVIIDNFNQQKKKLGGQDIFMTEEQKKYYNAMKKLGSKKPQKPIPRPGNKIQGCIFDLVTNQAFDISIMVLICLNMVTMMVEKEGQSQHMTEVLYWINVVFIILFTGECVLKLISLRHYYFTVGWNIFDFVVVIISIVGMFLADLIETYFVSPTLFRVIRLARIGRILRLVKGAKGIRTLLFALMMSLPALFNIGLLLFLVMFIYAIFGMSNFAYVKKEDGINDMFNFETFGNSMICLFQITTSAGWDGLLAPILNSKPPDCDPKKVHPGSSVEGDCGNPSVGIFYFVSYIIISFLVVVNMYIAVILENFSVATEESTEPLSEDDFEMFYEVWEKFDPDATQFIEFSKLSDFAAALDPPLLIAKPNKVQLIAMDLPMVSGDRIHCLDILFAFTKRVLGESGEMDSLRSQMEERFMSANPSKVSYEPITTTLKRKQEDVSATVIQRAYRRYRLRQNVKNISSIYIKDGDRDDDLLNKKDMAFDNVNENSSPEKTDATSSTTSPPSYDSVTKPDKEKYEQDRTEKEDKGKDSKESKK

COc1ccc(CNC(=O)C(CSCC2CCCC2)[N+](C)(C)CCC(C)(C)C)cc1 (centres unmarked) [CNCB-2, [2-Cyclopentylmethylsulfanyl-1-(4-methoxy-benzylcarbamoyl)-ethyl]−(3,3-dimethyl-butyl)-dimethyl-ammonium, chloride salt]
Kd (Nav1.7 [1]): 710 nM | whole-cell patch clamp, Ba2+ current, external and internal application (Cav2.2 [2]): current reduced to 5 ± 2% of control by 100

CCN(CC)CC(=O)Nc1c(C)cccc1C [lidocaine]
whole-cell patch clamp, use-dependent inhibition at 10 Hz (Nav1.7 [3]): current reduced to 57 ± 7% of control (no drug 77 ± 3%) by 30

CCCCN1CCCCC1C(=O)Nc1c(C)cccc1C (centres unmarked) [bupivacaine]
whole-cell patch clamp, use-dependent inhibition at 10 Hz (Nav1.7 [3]): current reduced to 22 ± 4% (no drug 77 ± 3%) by 10

COc1ccc(CNC(=O)C(CSCC2CCCC2)NCCC(C)(C)C)cc1 (centres unmarked) [NNCB-2, 3-Cyclopentylmethylsulfanyl-2-(3,3-dimethyl-butylamino)-N-(4-methoxy-benzyl)-propionamide]
inhibition at 10 µM (Cav2.2 [4]): ~60%
